Consider 8 compounds from patent publication US7183318B2, “Substituted cyclic compounds, preparation method and pharmaceutical compositions containing them” (Les Laboratoires Servier, priority 1998, dated 2007).

Usually melting point stands for the temperature of the solid-liquid transition. `COC(=O)Nc1ccc2occ(CCNC(C)=O)c2c1` [Example 58, Methyl N-{3-[2-(acetylamino)ethyl]benzo[b]furan-5-yl}carbamate] returned a melting point of 138 to 140 °C. Turning to `CC(=O)NCCc1coc2ccc(NC(=O)OC(C)(C)C)cc12` [Example 76, tert-Butyl 3-[2-(acetylamino)ethyl]-1-benzofuran-5-yl-carbamate], the melting point fell in the range of 146 to 148 °C. Consider `CNC(=O)c1ccc2occ(CCNC(=O)C3CCCC3)c2c1` [Example 72, 3-{2-[(Cyclopentylcarbonyl)amino]ethyl}-N-methyl-1-benzofuran-5-carboxamide], for which the melting point fell in the range of 170 to 171 °C. Regarding `CNC(=O)c1ccc2occ(CCNC(C)=O)c2c1` [Example 71, 3-[2-(Acetylamino)ethyl]-N-methyl-1-benzofuran-5-carboxamide], the melting point was 158 to 159 °C.

`COC(=O)c1ccc2occ(CCNC(=O)C3CCCC3)c2c1` [Example 64, Methyl 3-{2-[(cyclopentylcarbonyl)amino]ethyl}1-benzofuran-5-carboxylate] returned a melting point of 122 to 123 °C. Consider `NC(=O)c1ccc2occ(CCNC(=O)C3CC3)c2c1` [Example 68, 3-{2-[(Cyclopropylcarbonyl)amino]ethyl}-1-benzofuran-5-carboxamide], for which the melting point fell in the range of 209 to 210 °C. `NC(=O)c1ccc2occ(CCNC(=O)c3ccco3)c2c1` [Example 69, 3-[2-(2-Furoylamino)ethyl]-1-benzofuran-5-carboxamide] returned a melting point of 110 to 112 °C. Consider `COC(=O)c1ccc2occ(CCNC(=O)C3CC3)c2c1` [Example 65, Methyl 3-{2-[(cyclopropylcarbonyl)amino]ethyl}-1-benzofuran-5-carboxylate], for which the melting point lay in the range of 154 to 155 °C.
